Laboratory results: patent publication US10561638B2, “Methods for treating dependence” (Biotie Therapies, Inc., priority 2007, dated 2020)
“Also recorded” adds a separate entry of the source.

System: tissue noradrenaline and dopamine content
Assay: Tissue catecholamines in SHRs after three oral doses 12 h apart
Assay type: in vivo, spontaneously hypertensive rats
Details: for increase in DA/NE ratio / nepicastat compared with SKF-102698, catecholamine changes: 30 mg/kg; for maximal increase in DA/NE ratio: 100 mg/kg; for decrease in noradrenaline / increase in dopamine: 100 mg/kg po x3
Method: Male SHRs (15-16 weeks old, Charles River, Wilmington, Mass., USA) were used in in vivo studies. On the day of the study, animals were weighed and randomly assigned to be dosed with either vehicle (control) or the appropriate dose of nepicastat (3, 10, 30 or 100 mg·kg^−1, po) or Compound B (30 mg·kg^−1, po) three consecutive times, twelve hours apart. At six hours after the third dose, the rats were anaesthetized with halothane, decapitated and tissues (cerebral cortex, mesenteric artery and left ventricle) were rapidly harvested, weighed, placed in iced perchloric acid (0.4 M), frozen in liquid nitrogen and stored at −70° C. until subsequent analysis. To quantify noradrenaline and dopamine concentrations, tissues were homogenized by brief sonication and centrifuged at 13,000 rpm for 30 minutes at 4° C. The supernatant, spiked with 3,4-dihydroxybenzylamine (internal standard), was assayed for noradrenaline and dopamine by HPLC using electrochemical detection.
Nepicastat was used in in vivo biochemical studies to study the effects in spontaneously hypertensive rats (SHRs) and normal beagle dogs. On the day of the study, the animals were weighed and randomly assigned to receive either placebo (vehicle) or the appropriate dose of nepicastat. Each rat was dosed orally three times, 12 h apart, beginning in the morning. At 6 h after the third dose, the rats were anesthetized with halothane, decapitated, and the tissues (cerebral cortex, mesenteric artery and left ventricle) were rapidly harvested, weighed, placed in iced 0.4 M perchloric acid, frozen in liquid nitrogen and stored at −70° C. until analysis. Tissue NE and DA concentrations were assayed by HPLC using electrochemical detection. Male beagle dogs (10-16 kg, Marshall Farms USA Inc, North Rose, N.Y.) were used in the study. On the day of the study, dogs were randomly assigned to receive either placebo (empty capsule) or the appropriate dose of nepicastat. Each dog was dosed twice a day for 4.5 days. 6 h after the first dose on day 5, the dogs were euthanized with pentobarbital and the tissues (cerebral cortex. renal artery, left ventricle) harvested, weighed, placed in iced 0.4 M perchloric acid, frozen in liquid nitrogen and stored at −70° C. until analysis. Tissue NE and DA concentrations were assayed by HPLC using electrochemical detection.
Fifteen to sixteen week old male spontaneously hypertensive rats (SHRs) (Charles River Labs) were allowed food and water ad libitum. Animals were weighed and randomly assigned to one of the following treatment groups: 1) distilled water vehicle (dH2O), or nepicastat at 3, 10, 30, and 100 mg/kg, 2) Compound B at 30 mg/kg in distilled water, or 3) PEG 400:dH2O vehicle or SKF-102698 at 30 mg/kg. Each rat was dosed orally (p.o., using a gavage needle) three times 12 hours apart, beginning in the morning. At six hours after the third dose rats were anesthetized with halothane, decapitated, and the cortex, mesenteric artery, and left ventricle were rapidly harvested, weighed, placed in iced 0.4 M perchioric acid, frozen in liquid nitrogen, and stored at −70° C. Tissue dopamine and norepinephrine concentrations were assayed by high performance liquid chromatography and electrochemical detection.
Four series of statistical analyses were performed. The first series compared the rats treated with various doses of nepicastat, and Compound B at 30 mg/kg to the vehicle control animals. A nonparametric one-way analysis of variance (ANOVA) with factor Dose and blocking factor Day was performed for each tissue and strain separately. […] Pairwise analysis between treated and controls at each dose were carried out using Dunnett's test to control the experiment-wise error rate. The second statistical test compared SKF-102698 to the PEG-dH2O vehicle treated group using a nonparametric t-test. The third statistical test compared Compound B to nepicastat at doses of 30 mg/kg using a nonparametric t-test.

[1] = cerebral cortex, 30 and 100 mg/kg
[2] = left ventricle and mesenteric artery
[3] = left ventricle, 3, 10, 30 and 100 mg/kg

`Cl.NCc1c[nH]c(=S)n1[C@H]1CCc2c(F)cc(F)cc2C1` [nepicastat, (S)-5-Aminomethyl-1-(5,7-difluoro-1,2,3,4-tetrahydronaphth-2-yl)-2,3-dihydro-2-thioxo-1H-imidazole hydrochloride] was tested, and the “nepicastat compared with the R-enantiomer (Compound B), catecholamine changes” value (30 mg/kg po x3, mesenteric artery and/or left ventricle, hydrochloride) was “significantly greater changes in catecholamine content; also recorded: significantly more potent then the R enantiomer; also recorded: significantly more effective (p<0.01) than Compound B”, the “increase in DA/NE ratio” value (cerebral cortex) was 1.5 fold and the “norepinephrine levels, nepicastat compared to Compound B” value (cerebral cortex, 30 mg/kg x3) was “significantly lower”. For the same molecule, the “nepicastat compared with SKF-102698, catecholamine changes” value (cerebral cortex, hydrochloride) was “significantly less effects than SKF-102698; also recorded: greater for SKF-102698 than for nepicastat; also recorded: less effective in the cerebral cortex”, the “maximal increase in DA/NE ratio” value (cerebral cortex) was 3.2 fold and the decrease in noradrenaline (cerebral cortex) was 42%. For the same molecule, the increase in dopamine (cerebral cortex) was 86%, the “dopamine concentration vs vehicle” value [1] was “significantly (p<0.05) greater” and the “dopamine/norepinephrine ratio vs vehicle” value [1] was “significantly (p<0.05) greater”. For the same molecule, the “norepinephrine concentration vs vehicle” value [1] was “significantly (p<0.05) lower”, the “dose for significant decrease in norepinephrine” value [2] was 10 mg/kg and the “dose for significant increase in dopamine” value [2] was 3.0 mg/kg. The “dose for significant increase in dopamine/norepinephrine ratio” value [2] was 3.0 mg/kg, the “nepicastat compared with SKF-102698, catecholamine changes” value (left ventricle and/or mesenteric artery, hydrochloride) was “significantly more potent than the DBH inhibitor SKF-102698; also recorded: greater for nepicastat than for SKF-102698; also recorded: more effective than SKF-102698” and the “increase in DA/NE ratio” value (left ventricle) was 7.5 fold. The “maximal increase in DA/NE ratio” value (left ventricle) was 11 fold, the decrease in noradrenaline (left ventricle) was 35% and the increase in dopamine (left ventricle) was 800%. For the same molecule, the “dopamine concentration vs vehicle” value [3] was “significantly (p<0.05) greater than vehicle”, the “dopamine/norepinephrine ratio vs vehicle” value [3] was “significantly (p<0.05) greater than vehicle” and the “norepinephrine concentration vs vehicle” value (left ventricle, 10, 30 and 100 mg/kg) was “significantly (p<0.05) lower than vehicle”. For the same molecule, the “doses at which catecholamine changes attained significance (p<0.05)” value (mesenteric artery and left ventricle) was no less than 3 mg/kg, the “increase in DA/NE ratio” value (mesenteric artery) was 8.3 fold and the “maximal increase in DA/NE ratio” value (mesenteric artery) was 14 fold. The decrease in noradrenaline (mesenteric artery) was 47%, the increase in dopamine (mesenteric artery) was 820% and the “dopamine concentration vs vehicle” value (mesenteric artery, 3, 10, 30 and 100 mg/kg) was “significantly (p<0.05) greater than vehicle”. The “norepinephrine concentration vs vehicle” value (mesenteric artery, 10, 30 and 100 mg/kg) was “not significantly less (p>0.05)” and the “dopamine/norepinephrine ratio vs vehicle” value (mesenteric artery, all doses) was “significantly (p<0.05) greater than vehicle”.

In the case of `Fc1cc(F)cc(Cn2cc[nH]c2=S)c1` [SKF-102698, reference compound], the “increase in DA/NE ratio” value (cerebral cortex) is reported as 2.7 fold, the dopamine vs vehicle (cerebral cortex, 30 mg/kg x3) is reported as “significantly greater (p<0.01) than vehicle” and the “dopamine/norepinephrine ratio vs vehicle” value (cerebral cortex, 30 mg/kg x3) is reported as “significantly (p<0.01) greater than vehicle”. The norepinephrine vs vehicle (cerebral cortex, 30 mg/kg x3) was “significantly lower than vehicle”, the “increase in DA/NE ratio” value (left ventricle) was 3.5 fold and the dopamine vs vehicle (left ventricle, 30 mg/kg x3) was “significantly greater (p<0.01) than vehicle”. The “dopamine/norepinephrine ratio vs vehicle” value (left ventricle, 30 mg/kg x3) was “significantly (p<0.05) greater than vehicle”, the norepinephrine vs vehicle (left ventricle, 30 mg/kg x3) was “not different from vehicle” and the “increase in DA/NE ratio” value (mesenteric artery) was 5.5 fold. For the same molecule, the dopamine vs vehicle (mesenteric artery, 30 mg/kg x3) was “significantly greater than vehicle”, the “dopamine/norepinephrine ratio vs vehicle” value (mesenteric artery, 30 mg/kg x3) was “significantly greater than vehicle” and the norepinephrine vs vehicle (mesenteric artery, 30 mg/kg x3) was “significantly lower than vehicle”.
